Non-standard residues stand in square brackets, D forms with d. Residues, ends and D or L forms follow the SMILES beside them. Dip = N[C@H](C(=O)O)C(c1ccccc1)c1ccccc1
How the values were obtained:
[1] = Exposure time for cell killing (background statement); type: cell-based
IGROV-1/CDDP = experiment: MTS cytotoxicity assay, IGROV-1/CDDP; type: cell-based, human; conditions: IC50 resistant / IC50 sensitive line; cisplatin resistance
Protocol: (§1) Tumor cells were plated in 96-well flat-bottom microtitration plates (Nunc, Dutscher, Brumath, France) and incubated at 37° C. for 24 hours before treatment in 190 μl of drug-free culture medium supplemented or not with 10% FBS for adherent or suspension growing cell lines, respectively.
(§2) The adherent cell lines were washed once with 200 μl FBS-free culture medium before treatment. Tumor cells were incubated for 4 hours with 10 concentrations of compounds in ¼ dilution step with a top dose of 400 μM (range 4×10^−4 to 4×10^−10 M), with 1% (final concentration) Triton X-100 as positive control and FBS-free culture medium as negative control. The cells (190 μl) were incubated in a 200 μl final volume of FBS-free culture medium containing test substances at 37° C. under 5% CO2.
(§3) Three independent experiments were performed, each concentration being tested in quadruplicate. Control cells were treated with vehicle alone. At the end of treatments, the cytotoxic activity was evaluated by a MTS assay (see § 3.3.).
(§4) Like MTT, MTS is bioreduced by cells into a formazan product that is directly soluble in culture medium without processing, unlike MTT.
(§5) At the end of the cells treatment, 40 μl of a 0.22 μm filtered freshly combined solution of MTS (20 ml at 2 mg/ml, Ref G1111, Batch 235897, Exp March 2009, Promega, Charbonnières, France) and PMS (1 ml at 0.92 mg/ml, Ref P9625, Batch 065K0961, Sigma) in Dulbecco's Phosphate Buffered Saline (DPBS, Ref 17-513Q, Batch 6MB0152, Cambrex), were added in each well. Culture plates were incubated for 2 h at 37° C. Absorbency (OD) were measured at 490 nm in each well using VICTOR^3™ 1420 multilabeled counter (Wallac, PerkinElmer, Courtaboeuf, France).
(§6) IC50: drug concentration to obtain a 50% inhibition of cell proliferation.
(§7) The dose-response curves were plotted using XLFit 3 (IDBS, United Kingdom). The IC50 determination values were calculated using the XLFit 3 software from semi-log curves. Individual IC50 determination values as well as mean and SD values were generated.
(§8) Resistance index was calculated using the following formula: […]
(§9) Resistance index was calculated for each compound for each couple of sensitive and resistant cell lines. Individual resistance index was calculated when IC50 values of both sensitive and corresponding resistant cell lines were determined within same experiment. In addition, resistance index was also calculated ratio of mean IC50 values obtained during three independent experiments.

[2] = test system: HUV-EC-C normal cell line; type: cell-based, human; conditions: 24 h
Protocol: as §1
as §2, with “Tumor cells were incubated for 4 hours with 10 concentrations of compounds in ¼ dilution step with a” left out
as §3, §4, §5, §6, §7

K-562 = type: cell-based, human; conditions: 24 h
Protocol: as §1
as §2, with “Tumor cells were incubated for 4 hours with 10 concentrations of compounds in ¼ dilution step with a” left out
as §3, §4, §5, §6, §7

IGROV-1 = type: cell-based, human; conditions: 24 h
Protocol: as §1
as §2, with “Tumor cells were incubated for 4 hours with 10 concentrations of compounds in ¼ dilution step with a” left out
as §3, §4, §5, §6, §7

HL-60 = type: cell-based, human; conditions: 24 h
Protocol: as §1
as §2, with “Tumor cells were incubated for 4 hours with 10 concentrations of compounds in ¼ dilution step with a” left out
as §3, §4, §5, §6, §7

MCF-7 = type: cell-based, human; conditions: 24 h
Protocol: as §1
as §2, with “Tumor cells were incubated for 4 hours with 10 concentrations of compounds in ¼ dilution step with a” left out
as §3, §4, §5, §6, §7

A375 cells [3] = experiment: Release of cytochrome-C (ELISA); type: cell-based, human; conditions: 35 μM, 5, 15, 45 min
Protocol: A375 cells were seeded as with HMGB1 studies, and treated with 35 μM for different time points (5, 15, 45). Supernatants were collected and concentrated as with HMGB1 studies, and samples from the supernatants were analyzed using a 4.5 hour solid form Cytochrome C—Elisa kit (R&D Systems, USA, #DCTCO) following the manufacturer's description. Shortly thereafter, a 50% diluted sample was analyzed and the optical density was determined using a microplate reader set at 450 nm, and this reading was then subtracted from the reading at 540 nm. A standard curve was generated for each set of samples assayed. Samples were run in four parallels, and the cytochrome-c released into the supernatant was expressed as a fold over the level of cytochrome-c in the supernatant of untreated cells.

HL-60/ADR = experiment: MTS cytotoxicity assay, HL-60/ADR; type: cell-based, human; conditions: IC50 resistant / IC50 sensitive line; doxorubicin resistance
Protocol: as §1, §2, §3, §4, §5, §6, §7, §8, §9

A375 cells [4] = experiment: Release of ATP (luciferase assay); type: cell-based, human; conditions: luciferase detection; concentration-dependent
Protocol: The supernatant of LTX-315-treated A375 cells was analyzed using an Enliten ATP luciferase assay kit (Promega, USA). Cells were then seeded as with an ROS assay, and treated with LTX-315 in different incubation times, from 1 to 15 minutes with two parallels, which was then conducted three times. Negative controls were untreated A375 cells exposed to serum-free media alone. Samples were diluted at 1:50 and 1:100, and analyzed with a Luminoscan RT luminometer according to the manufacturer's protocol.

[5] = test system: panel of 10 lymphoma cell lines; type: cell-based, human
Protocol: Tumor cells were plated in 96-well flat-bottom microtitration plates (Nunc, Dutscher, Brumath, France) and incubated at 37° C. for 24 hours before treatment in 190 μl of drug-free and FBS-free culture medium.
[…] compounds in ¼ dilution step with a top dose of 400 μM (range 4×10^−4 to […]), with 1% (final concentration) Triton X-100 as positive control and FBS-free culture medium as negative control. The cells (190 μl) were incubated in a 200 μl final volume of FBS-free culture medium containing test substances at 37° C. under 5% CO2.
Three independent experiments were performed, each concentration being issued from quadruplicate. Control cells were treated with vehicle alone. At the end of treatments, the cytotoxic activity was evaluated by a MTS assay (see § 3.3 below).
as §4, §5
4.1. IC50 Data was Determined as in Example 1

SK-OV-3 cell line = type: cell-based, human; conditions: 4 h
Protocol: as §1, §2, §3, §4, §5, §6, §7

T-47D cell line = type: cell-based, human; conditions: 4 h
Protocol: as §1, §2, §3, §4, §5, §6, §7

Question: With `NCCCC[C@H](NC(=O)[C@@H](NC(=O)[C@H](Cc1c[nH]c2ccccc12)NC(=O)[C@H](CCCCN)NC(=O)[C@H](CCCCN)NC(=O)[C@H](Cc1c[nH]c2ccccc12)NC(=O)[C@H](Cc1c[nH]c2ccccc12)NC(=O)[C@H](CCCCN)NC(=O)[C@@H](N)CCCCN)C(c1ccccc1)c1ccccc1)C(N)=O` [LTX-315, K-K-W-W-K-K-W-Dip-K-NH2] (H-KKWWKKW[Dip]K-NH2) as the compound, how does the “Exposure time causing cell death” value [1] read?
Answer: 30 min

Question: What about the “Resistance index (RI), IGROV-1/CDDP” value (IGROV-1/CDDP) of the same compound?
Answer: 0.50

Question: What about the IC50 [2] of the same compound?
Answer: 23 µM

Question: And the IC50 (K-562)?
Answer: 3.27 µM

Question: And the IC50 (IGROV-1)?
Answer: 6.37 µM

Question: What about the IC50 (HL-60) of the same compound?
Answer: 2.07 µM

Question: And the IC50 (MCF-7)?
Answer: 1.94 µM

Question: What about the “Cytochrome-C in the supernatant compared to untreated control cells” value (A375 cells [3]) of the same compound?
Answer: three times more

Question: And the “Resistance index (RI), HL-60/ADR” value (HL-60/ADR)?
Answer: 1.45

Question: What about the “ATP release into supernatant” value (A375 cells [4]) of the same compound?
Answer: ATP was detected in the supernatant as early as after 5 minutes of treatment

Question: What about the “Potency rank among the five compounds tested, lymphoma panel” value [5] of the same compound?
Answer: most potent compound from the five compounds tested

Question: And the “IC50 range against 10 human lymphoma cell lines” value ([5]; conclusion)?
Answer: micromolar range

Question: What about the IC50 (SK-OV-3 cell line) of the same compound?
Answer: 7.16 ± 0.99 µM

Question: And the IC50 (T-47D cell line)?
Answer: 1.18 ± 0.25 µM

Reference: patent publication US11123398B2, “Chemotherapeutic combinations of cationic antimicrobial peptides and chemotherapeutics” (LYTIX BIOPHARMA AS, priority 2014, dated 2021)
